Assay [1] concerns the target Histone-lysine N-methyltransferase SUV39H2 (Homo sapiens, UniProt Q9H5I1). The assay can be described thus: Inhibition of SUV39H2 (unknown origin) using H3 histone peptide substrate and [3H]-SAM incubated for 3 hrs by microbeta counting based assay.
For the next assay, the system named is A549. The assay can be described thus: Cytotoxicity against human A549 cells assessed as reduction in cell viability incubated for 72 hrs by CCK8 assay. It counts as functional, cell-based. To be noted: A549, 72 h. For orientation: Tetrazolium dyes change colour on reduction, which living cells bring about.
Another assay concerns PC-14. The assay can be described thus: Cytotoxicity against human PC14 cells assessed as reduction in cell viability incubated for 72 hrs by CCK8 assay. To be noted: PC-14, 72 h. In kind it is functional, cell-based.
A further assay deals with HCT-116. The assay can be described thus: Cytotoxicity against human HCT116 cells assessed as reduction in cell viability incubated for 72 hrs by CCK8 assay. In kind it is functional, cell-based. To be noted: HCT-116, 72 h.
For the next assay, the system named is CCD-18Co. The assay can be described thus: Cytotoxicity against human CCD-18Co cells assessed as reduction in cell viability incubated for 72 hrs by CCK8 assay. In kind it is functional, cell-based.
For another assay, the system named is HFL1. The assay can be described thus: Cytotoxicity against human HFL1 cells assessed as reduction in cell viability incubated for 72 hrs by CCK8 assay. In kind it is functional, cell-based. To be noted: HFL1, 72 h.

By IC50 is commonly meant the midpoint of a concentration-inhibition curve.

Histone-lysine N-methyltransferase SUV39H2, sequence (Q9H5I1 whole entry): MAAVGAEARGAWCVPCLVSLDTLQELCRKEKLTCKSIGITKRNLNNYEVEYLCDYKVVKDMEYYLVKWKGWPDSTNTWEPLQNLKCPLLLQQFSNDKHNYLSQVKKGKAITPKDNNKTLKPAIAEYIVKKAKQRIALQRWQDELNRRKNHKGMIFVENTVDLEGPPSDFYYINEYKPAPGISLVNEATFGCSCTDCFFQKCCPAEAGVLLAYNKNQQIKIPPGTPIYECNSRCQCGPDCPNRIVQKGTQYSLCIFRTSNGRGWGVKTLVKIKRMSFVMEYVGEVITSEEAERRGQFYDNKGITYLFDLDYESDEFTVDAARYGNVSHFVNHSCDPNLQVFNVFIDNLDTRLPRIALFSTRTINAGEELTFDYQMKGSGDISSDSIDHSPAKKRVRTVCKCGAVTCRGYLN

`CNCC(=O)Nc1ccc(-c2ccn3cc(-c4cc(Cl)c(OC)cc4OC)nc3c2)cc1` registered an IC50 in assay [1] of 0.0801 µM.
As for `COc1cc(OC)c(-c2cn3ccc(N4CCN(c5cnc(N6CCC(NS(=O)(=O)C7CC7)CC6)nc5)CC4)cc3n2)cc1Cl`, the IC50 with A549 amounted to 0.67 µM.
Same read-out and setting: for `COc1cc(OC)c(-c2cn3ccc(N[C@H]4CC[C@@H](N(C)Cc5ccc(F)cc5)CC4)cc3n2)cc1Cl` the value was 1.3 µM; for `COc1cc(OC)c(-c2cn3ccc(N4CCN(Cc5ccc(C#N)nc5)CC4)cc3n2)cc1Cl`, 0.96 µM.
With `COc1cc(OC)c(-c2cn3ccc(N[C@H]4C[C@H]5CC[C@@H](C4)N5CC4CCCCC4)cc3n2)cc1Cl`, the IC50 with A549 was found to be 0.55 µM.
`COc1cc(OC)c(-c2cn3ccc(-c4ccc(C(=O)NC5CCNC5)cc4)cc3n2)cc1Cl` (centres undefined): the IC50 in the assay with PC-14 amounted to 4.8 µM; in the assay with A549, 5.4 µM; in the assay on HCT-116 it was 3.7 µM; in the assay on CCD-18Co, 5.2 µM; in the assay on HFL1 it was 5.4 µM.
In the case of `COc1cc(OC)c(-c2cn3ccc(NC(=O)[C@@H](N)CCCCN)cc3n2)cc1Cl`, the half-inhibitory concentration (IC50) in the assay with A549, in the assay with HCT-116, in the assay on CCD-18Co and in the assay with HFL1 was 10 µM in each case.
Compound `COc1cc(OC)c(-c2cn3ccc(N4CCN(c5cnc(N6CCNCC6)nc5)CC4)cc3n2)cc1Cl` had an IC50 in assay [1] of 0.0148 µM.
`COCC(=O)N1CCN(c2ccn3cc(-c4cc(Cl)c(OC)cc4OC)nc3c2)C(C)C1` (centres undefined) registered an IC50 in assay [1] of 0.00188 µM.
Same read-out and setting: for `COc1cc(OC)c(-c2cn3ccc(-c4ccc(C(=O)[C@H](C)N)cc4)cc3n2)cc1Cl` the value was 0.0995 µM; for `COC(=O)c1ccc(CN[C@H]2CC[C@@H](Nc3ccn4cc(-c5cc(Cl)c(OC)cc5OC)nc4c3)CC2)cc1`, 0.0241 µM.
Take `COc1cc(OCCCN(C)C)c(-c2cn3ccc(N4CCN(C(C)=O)CC4)cc3n2)cc1Cl`: the IC50 in the assay with PC-14 turned out to be 8 µM; with A549, 6.9 µM; in the assay with HCT-116 it was 7.9 µM; in the assay with CCD-18Co it was 8.7 µM; with HFL1, 4.3 µM.
In the case of `COc1cc(OC)c(-c2cn3ccc(N[C@H]4CC[C@@H](N(C)Cc5ccccc5F)CC4)cc3n2)cc1Cl`, the IC50 in the assay with A549 was determined as 0.74 µM.
